Reference: US6319685A (Unigene Laboratories, Inc., priority 1987, dated 2001)
Each block holds one molecule with its values, some of them ahead of it.

Assays:
[1] = molecular target: T1, alpha-amidating enzyme (Rattus norvegicus, UniProt P14925); experiment: comparison of assay systems / kinetic analysis of amidation of dansyl-Tyr-Val-Gly, D-Tyr-Val-Gly and 125I-D-Tyr-Val-Gly; type: biochemical
T1 sequence (P14925 36-976): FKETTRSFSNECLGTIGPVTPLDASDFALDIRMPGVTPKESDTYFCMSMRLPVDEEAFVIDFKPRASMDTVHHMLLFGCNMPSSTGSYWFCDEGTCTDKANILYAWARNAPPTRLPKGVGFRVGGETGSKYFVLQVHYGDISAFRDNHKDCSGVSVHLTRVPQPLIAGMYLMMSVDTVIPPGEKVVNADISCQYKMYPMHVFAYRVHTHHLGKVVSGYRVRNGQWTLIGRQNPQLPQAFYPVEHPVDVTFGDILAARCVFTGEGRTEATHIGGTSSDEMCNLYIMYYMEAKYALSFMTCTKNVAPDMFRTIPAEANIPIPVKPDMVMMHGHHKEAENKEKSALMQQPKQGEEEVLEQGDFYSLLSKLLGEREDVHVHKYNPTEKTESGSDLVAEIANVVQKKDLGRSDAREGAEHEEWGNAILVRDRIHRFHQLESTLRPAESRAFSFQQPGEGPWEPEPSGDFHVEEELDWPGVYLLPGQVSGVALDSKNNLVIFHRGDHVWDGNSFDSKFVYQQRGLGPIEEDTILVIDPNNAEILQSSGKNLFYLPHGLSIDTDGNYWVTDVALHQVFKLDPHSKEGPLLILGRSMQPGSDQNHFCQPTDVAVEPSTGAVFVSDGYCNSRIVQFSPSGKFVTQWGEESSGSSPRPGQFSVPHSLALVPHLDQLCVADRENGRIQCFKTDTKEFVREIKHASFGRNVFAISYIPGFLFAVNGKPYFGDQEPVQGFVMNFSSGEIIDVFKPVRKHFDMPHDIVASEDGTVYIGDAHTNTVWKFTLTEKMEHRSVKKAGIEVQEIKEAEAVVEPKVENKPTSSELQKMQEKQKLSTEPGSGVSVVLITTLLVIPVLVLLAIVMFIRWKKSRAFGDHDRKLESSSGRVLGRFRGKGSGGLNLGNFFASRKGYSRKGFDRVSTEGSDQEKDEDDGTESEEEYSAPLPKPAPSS
Procedure: I. Monodansyl L-Tyr-Val-Gly
The concentration of enzyme used in all experiments was left constant except where noted.
The reaction mixture for the conversion of the monodansyl substrate contained:
5 μl of 100 ug/mL bovine pancreatic catalase
5 μl containing 2 nmoles of substrate
The samples were prepared in duplicate and incubated at 37° C. for 10, 20 and 30 minutes time periods. The enzymatic reaction was halted by the addition of 10 ul 500 mM EDTA. Substrate and product were separated by RP HPLC using an Hewlett Packard-1090 liquid chromatography system, and quantitation was achieved using a HP-3392 integrator.
D-Tyr-Val-Gly and D-Tyr-Val-NH2 were iodinated using iodobeads from Pierce Chemical Company. The radiolabeied substrate and product were used to calibrate a sulfyl-propyl cation-exchange column. ^125 I D-Tyr-Val-Gly was added to 650 uM D-Tyr-Val-Gly and used as the substrate. The reaction mixture for the conversion of monodansyl substrate contained:
Samples were incubated for 10, 20, 30 minutes at 37° C. The reaction was stopped by addition of 500 mM EDTA. […] The conversion of radiolabeled substrate to product was linear with respect to time.
The reaction conditions used for the amidation of D-Tyr-Val-Gly are identical to those described for the dansyl and iodinated substrates. Substrate concentration in the reaction mixture was 650 uM. Separation of substrate and product is achieved by gradient elution on RP-HPLC using a HP-1090 liquid chromatography system. The column effluents were monitored at 280 nm. The level of sensitivity for this assay is much lower than that for either dansyl or iodinated substrates.
Furthermore, a somewhat more rigorous kinetic analysis has also been employed to compare the dansyl-Tyr-Val-Gly (Applicants') assay to the D-Tyr-Val-Gly (prior art) assay.

[2] = molecular target: T1, alpha-amidating enzyme; experiment: kinetic studies of alpha-amidating enzyme with monodansyl L-Tyr-Val-Gly; type: biochemical; settings: pH 7.0, 37° C.
Description: These assays incorporate the use of synthetic tripeptide substrates. Amidation of these substrates is conveniently monitored by separation and quantification of the product ([…] and substrate tripeptide) using HPLC. The most sensitive of the assays developed utilizes monodansyl L-Tyr-Val-Gly as substrate. This compound can be detected at extremely low levels because the dansyl group is fluorescent.
In particular, the kinetic parameters Km and Vmax have been determined by examination of the effect of variation of substrate concentration upon enzymatic activity. […] The smaller the Km the greater the affinity. Vmax is the maximum velocity at which the enzyme will convert the substrate to product and is observed at saturating concentrations of substrate (i.e., the substrate is present in large excess over the enzyme).
In a typical amidation enzyme assay, the reation system (50 ul) would comprise enzyme (approximately 7 μg), dansyl L-Tyr-Val-Gly (up to 40 μM), L-ascorbic acid (3 mM), catalase (0 to 100 μg ml^-1), and copper sulfate (0 to 2 uM) in 60 mM TES buffer at pH 7.0. The reaction is initiated at 37° C. by the addition of enzyme and terminated after a defined period of time by the addition of 0.1 M EDTA (final concentration), which binds up copper making it unavailable for the enzyme.

Km [1]: 1.7 µM
Vmax [1]: 21 pmol product/min/μl
Km ([2]; regardless of the state of purification of the enzyme): 1 to 2 µM
Molecule: monodansyl L-Tyr-Val-Gly [Dansyl-Tyr-Val-Gly]

B1: pure tumor enzyme: pure alpha-amidating enzyme from tumor (protein, UniProt P14925 36-976, looked up)
Peptidylglycine …: T1 sequence (P14925 36-976)
Vmax ([2]; dansyl L-Tyr-Val-Gly, pure tumor enzyme): about 5000 nmol product formed per mg protein
